Assay results from patent publication US10350206B2, “Benzyl substituted indazoles as BUB1 inhibitors” (Bayer Pharma Aktiengesellschaft, priority 2014, dated 2019).

What was measured:
[1] = target: T1, catalytic domain of human Bub1 (amino acids 704-1085) (Homo sapiens, UniProt O43683); test: Bub1 kinase assay (TR-FRET); type: biochemical; settings: 10 μM ATP, 60 min reaction, pH 7.5; read-out: Biological Assay 1: Bub1 kinase assay median IC50
T1 construct: catalytic domain of human Bub1 (amino acids 704-1085); His6 (N); made in house; host or cells: Hi5 insect cells

[2] = target: T1, catalytic domain of human Bub1 (amino acids 704-1085); test: Equilibrium probe competition assay (TR-FRET kinase binding assay); settings: read-out: Assay 5 IC50
Description: The half-life of prodrugs (Table 3) poses a challenge for the verification of their biological activity. The Bub1 enzymatic activity assay (as per Biological Assay 1.0 infra) requires a minimum reaction time of 60 minutes in order to be able to assess the inhibitory activity of the compounds. During this time typically 20% to 60% of the prodrugs have been already converted to their corresponding drugs at the pH of 7.5 at which the assay is performed. Ideally one would perform the biological assay at a pH at which the prodrug is stable (e.g. pH 4). […] Alternatively, an assay requiring shorter incubation times would better estimate the binding affinities of the prodrugs. […] Extrapolating the stability data from Tables 3 and 4, one would expect at this time point most of the compound present in the test solution to be the prodrug.
FIGS. 1 and 2 combine the results from Biological Assay 5 with those from Biological Assay 6. The binding affinities over time of drug and prodrug pairs are shown as pIC50 together with the prodrug stability, and the pIC50 to be expected if only the drug present in the sample was responsible for the activity in the assay. Extrapolating the pIC50 from these graphs to time 0 (at which 100% of prodrug is present in the sample), the actual affinity of the drug and prodrug can be inferred. Secondly, looking at the differences between expected and real pIC50 an estimate can be made about the contribution of the prodrug to the observed activity.
Biological Assay 5.0: Equilibrium Probe Competition Assay:
Bub1 binding affinity of compounds described in the present invention were quantified using a time-resolved fluorescence energy transfer (TR-FRET) kinase binding assay which measures displacement of the synthetic fluorescent probe 5-[({2-[2-({2-[1-(4-ethoxy-2,6-difluorobenzyl)-1H-indazol-3-yl]-4-(pyridin-4-ylamino)pyrimidin-5-yl}oxy)ethoxy]ethyl}carbamothioyl)amino]-2-(6-hydroxy-3-oxo-3H-xanthen-9-yl)benzoic acid (6-5-1) by the (recombinant) catalytic domain of human Bub1 (amino acids 704-1085). The enzyme was expressed in Hi5 insect cells with N-terminal 6×His/AviTag® sequences, purified by affinity- (Ni-NTA) and size exclusion chromatography and site-specific biotinylated ex-vivo using a commercially available kit (Avidity).
In a typical assay 11 different concentrations of each compound (0.1 nM, 0.33 nM, 1.1 nM, 3.8 nM, 13 nM, 44 nM, 0.15 μM, 0.51 μM, 1.7 μM, 5.9 μM and 20 μM) were tested in duplicate within the same microtiter plate. To this end, 100-fold concentrated compound solutions (in DMSO) were made by serial dilution (1:3.4) of freshly prepared 2 mM stocks in a clear low volume 384-well source microtiter plate (Greiner Bio-One, Frickenhausen, Germany), from which 50 nl of compounds were transferred into a black low volume test microtiter plate from the same supplier. Subsequently 2 μL of a solution containing biotinylated Bub1 (the final concentration of Bub1 was adjusted depending on the activity of the enzyme lot in order to be within the linear dynamic range of the assay: typically ˜[…] were used) and 1 nM Streptavidin Terbium Cryptate (Cisbio, No. 610SATLB) in aqueous assay buffer [50 mM Tris/HCl pH 7.5, 200 mM potassium chloride (KCl), 1.0 mM dithiothreitol (DTT), 0.1 mM sodium ortho-vanadate, 1% (v/v) glycerol, 0.01% (w/v) bovine serum albumine (BSA), 0.005% (v/v) Triton X-100 (Sigma), were added to the compounds in the test plate and the mixture was incubated for 15 min at 22° C. to allow pre-equilibration of the putative enzyme-inhibitor complexes before the start of the probe competition reaction, which was initiated by the addition of 3 μL 1.67-fold concentrated solution (in assay buffer) of 6-5-1 (final concentration: 1.5 nM). The resulting mixture (5 μL final volume) was incubated at 22° C. during 0, 15, 30, 60, 120, 240 and 1440 min. […]

Structure (SMILES)	IC50 [1]	IC50 ([2]; Time 15 min)	IC50 ([2]; Time 30 min)	IC50 ([2]; Time 60 min)	IC50 ([2]; Time 90 min)	IC50 ([2]; Time 120 min)	IC50 ([2]; Time 240 min)	IC50 ([2]; Time 1440 min)
COc1cnc(-c2nn(Cc3c(F)cc(OCCO)cc3F)c3ccccc23)nc1Nc1ccnc(C)c1 [Example 2-1-2, 2-{3,5-difluoro-4-[(3-{5-methoxy-4-[(2-methylpyridin-4-yl)amino]pyrimidin-2-yl}-1H-indazol-1-yl)methyl]phenoxy}ethanol]	24 nM	1.6 nM	3.5 nM	2.2 nM	3.2 nM	2.9 nM	4 nM	2.4 nM
COc1cnccc1Nc1nc(-c2nn(Cc3c(F)cc(OCCO)cc3F)c3ccccc23)ncc1OC [Example 2-1-3, 2-{3,5-difluoro-4-[(3-{5-methoxy-4-[(3-methoxypyridin-4-yl)amino]pyrimidin-2-yl}-1H-indazol-1-yl)methyl]phenoxy}ethanol]	7.1 nM	1.7 nM	1.3 nM	0.9 nM	0.54 nM	0.49 nM	0.31 nM	0.2 nM
